For orientation: MIC means the smallest concentration in the dilution series that meets the test's criterion for growth inhibition. Low readings indicate a more susceptible organism, high ones a less susceptible organism.

≈ marks a conversion by molar mass, not a printed value. Calls of active or inactive are those of the source.

Here are results for 1 molecule from ChEMBL document CHEMBL4138105, “LL-37-derived short antimicrobial peptide KR-12-a5 and its d-amino acid substituted analogs with cell selectivity, anti-biofilm activity, synergistic effect with conventional antibiotics, and anti-inflammatory activity” (Eur J Med Chem, 2017).

The test system of test [1] is Staphylococcus aureus. In words: Antibacterial activity against Staphylococcus aureus KCTC 1621 assessed as cell membrane disruption at 2 times MIC within 4 mins by Sytox Green dye based fluorescence spectrophotometer assay. In kind it is functional, organism-based.
Test [2] has as its system Staphylococcus aureus. Briefly: Antibacterial activity against Staphylococcus aureus KCTC 1621 assessed as cytoplasmic membrane depolarization at 2 times MIC by disC3-5 dye based fluorescence assay. Format: functional, organism-based.
The next test has as its system Enterococcus faecium. Briefly: Antibacterial activity against Vancomycin-resistant Enterococcus faecium ATCC 51559 after 24 hrs. Format: functional. To be noted: ATCC 51559, 24 h.

In the case of `CC[C@H](C)[C@H](NC(=O)CN)C(=O)NCC(=O)N[C@@H](C)C(=O)N[C@H](C(=O)N[C@@H](CC(C)C)C(=O)N[C@@H](CCCCN)C(=O)N[C@H](C(=O)N[C@@H](CC(C)C)C(=O)N[C@H](C(=O)N[C@H](C(=O)NCC(=O)N[C@@H](CC(C)C)C(=O)N1CCC[C@H]1C(=O)N[C@@H](C)C(=O)N[C@@H](CC(C)C)C(=O)N[C@H](C(=O)N[C@@H](CO)C(=O)N[C@@H](Cc1c[nH]c2ccccc12)C(=O)N[C@H](C(=O)N[C@@H](CCCCN)C(=O)N[C@@H](CCCNC(=N)N)C(=O)N[C@@H](CCCCN)C(=O)N[C@@H](CCCNC(=N)N)C(=O)N[C@@H](CCC(N)=O)C(=O)N[C@@H](CCC(N)=O)C(N)=O)[C@@H](C)CC)[C@@H](C)CC)[C@@H](C)O)[C@@H](C)O)C(C)C)C(C)C` [MELITTIN], the outcome in the test with Staphylococcus aureus [1] and in the test with Staphylococcus aureus [2] was Active. Moreover, the MIC in the test with Enterococcus faecium was 16 µM (≈ 45.5 µg/mL).
